Results as given in patent publication US20130029961A1, “Substituted Heterocyclic Aza Compounds” (Gruenenthal GmbH, priority 2011, published 2013).

These compounds were tested against T1, TRPV1 human (Homo sapiens, UniProt Q8NER1) (assay: Functional FLIPR Ca2+ influx assay on vanilloid receptor 1 (VR1/TRPV1), capsaicin stimulus). Conditions: functional (f), vs capsaicin (CAP); Ki from IC50 by Cheng-Prusoff.
T1 construct: expressed in transfected cells; host or cells: CHO K1 cells
T1 sequence (Q8NER1 whole entry): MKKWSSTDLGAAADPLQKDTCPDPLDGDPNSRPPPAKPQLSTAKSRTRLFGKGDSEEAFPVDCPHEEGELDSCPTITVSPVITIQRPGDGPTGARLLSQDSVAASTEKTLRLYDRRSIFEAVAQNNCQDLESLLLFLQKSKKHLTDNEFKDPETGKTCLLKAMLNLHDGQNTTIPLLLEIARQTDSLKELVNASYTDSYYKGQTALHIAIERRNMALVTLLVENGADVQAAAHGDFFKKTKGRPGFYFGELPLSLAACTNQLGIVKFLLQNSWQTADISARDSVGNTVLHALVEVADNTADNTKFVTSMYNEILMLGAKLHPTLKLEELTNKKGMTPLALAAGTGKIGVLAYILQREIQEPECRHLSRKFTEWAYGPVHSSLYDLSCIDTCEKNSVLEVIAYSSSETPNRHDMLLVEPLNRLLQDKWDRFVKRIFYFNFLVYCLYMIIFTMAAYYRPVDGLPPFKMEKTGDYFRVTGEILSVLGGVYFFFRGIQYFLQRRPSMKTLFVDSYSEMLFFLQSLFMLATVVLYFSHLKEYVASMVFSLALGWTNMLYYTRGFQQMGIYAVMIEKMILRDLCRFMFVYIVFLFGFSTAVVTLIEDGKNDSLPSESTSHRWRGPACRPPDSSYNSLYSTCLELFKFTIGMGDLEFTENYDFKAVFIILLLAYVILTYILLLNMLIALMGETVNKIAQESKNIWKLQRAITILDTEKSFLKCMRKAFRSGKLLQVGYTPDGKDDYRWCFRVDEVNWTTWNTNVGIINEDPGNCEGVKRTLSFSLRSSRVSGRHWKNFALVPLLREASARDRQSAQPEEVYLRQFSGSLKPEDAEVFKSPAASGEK
Assay type: cell-based
Set-up: key to TRPV1 human (f) CAP, agonist (AG): AG denotes agonist
O=C(Cc1ccccn1)NCc1ccc(C(F)(F)F)nc1-c1cccc(Cl)c1 [compound 5] was tested, and the Ki was 91 nM. Compound CC1CCN(c2nc(C(F)(F)F)ccc2CNC(=O)Nc2ccc(CO)cn2)CC1 [compound 127] has a Ki of 61 nM. CC(C(=O)NCc1ccc(C(F)(F)F)nc1N1CCCCC1)c1cnc(C(=O)Nc2ccc(F)cc2)nc1 (stereo not drawn) [compound 79] gave a Ki of 11 nM. Work on Cc1cccc(-c2nc(C(F)(F)F)ccc2CNC(=O)C(C)c2cnc(C(=O)Nc3ccc(F)cc3)nc2)c1 (stereo not drawn) [compound 81] yielded a Ki of 5 nM. Compound O=C(Cc1ccccn1)NCc1ccc(C(F)(F)F)nc1N1CCCC1 [compound 10] has a Ki of 73 nM. For CC1CCN(c2nc(C(F)(F)F)ccc2CNC(=O)C(C)c2ccccn2)CC1 (stereo not drawn) [compound 14], the Ki was 45 nM. In the case of CC1CCN(c2nc(C(F)(F)F)ccc2CNC(=O)Nc2ccccn2)CC1 [compound 19], the Ki is reported as 35 nM. CC1CCN(c2nc(C(F)(F)F)ccc2CNC(=O)Nc2cnc(CCS(C)(=O)=O)c(F)c2)CC1 [compound 67] showed a Ki of 6 nM. Compound CC1CCN(c2nc(C(F)(F)F)ccc2CNC(=O)C(C)c2cnc(C(=O)Nc3ccccc3)nc2)CC1 (stereo not drawn) [compound 76] has a Ki of 77 nM. CC1CCN(c2nc(C(F)(F)F)ccc2CNC(=O)Nc2ccc(N(C)CCO)nc2)CC1 [compound 90] was tested, and the Ki was 19 nM. With CC1CCN(c2nc(C(F)(F)F)ccc2CNC(=O)C(C)c2ccc(C(=O)Nc3ccccc3)nc2)CC1 (stereo not drawn) [compound 75] the Ki was 57 nM. CC1CCN(c2nc(C(F)(F)F)ccc2CNC(=O)Cc2ccncn2)CC1 [compound 39] showed a Ki of 11 nM. With CC1CCN(c2nc(C(F)(F)F)ccc2CNC(=O)C(C)c2cnc(NS(C)(=O)=O)c(F)c2)CC1 (stereo not drawn) [compound 96] the Ki was 1 nM. For CC(C(=O)NCc1ccc(C(F)(F)F)nc1N1CCOCC1)c1cnc(C(=O)Nc2ccc(F)cc2)nc1 (stereo not drawn) [compound 80], the Ki was 60 nM. For CC1CCN(c2nc(C(F)(F)F)ccc2CNC(=O)Nc2ccc(N3CC(O)C3)nc2)CC1 [compound 108], the Ki was 12 nM. CC1CCN(c2nc(C(F)(F)F)ccc2CNC(=O)Nc2ccc(OCCO)nc2)CC1 [compound 123] showed a Ki of 11 nM. CC(C(=O)NCc1ccc(C(F)(F)F)nc1N1CCCC1)c1cnc(C(=O)Nc2ccc(F)cc2)nc1 (stereo not drawn) [compound 78] showed a Ki of 42 nM. CC1CCN(c2nc(C(F)(F)F)ccc2CNC(=O)C(C)c2ccc(NC(=O)c3ccc(Cl)cc3)nc2)CC1 (stereo not drawn) [compound 99] showed a Ki of 9 nM. In the case of CC1CCN(c2nc(C(F)(F)F)ccc2CNC(=O)Cc2cccnc2)CC1 [compound 31], the Ki is reported as 6 nM. COc1cc(NC(=O)NCc2ccc(C(F)(F)F)nc2N2CCC(C)CC2)cnc1N1CCCC1 [compound 116] showed a Ki of 78 nM. Compound CC1CCN(c2nc(C(F)(F)F)ccc2CNC(=O)Nc2ccc(NCCO)nc2)CC1 [compound 86] has a Ki of 1 nM. With CC1CCN(c2nc(C(F)(F)F)ccc2CNC(=O)Cc2cnccn2)CC1 [compound 40] the Ki was 107 nM. Work on CC1CCN(c2nc(C(F)(F)F)ccc2CNC(=O)Nc2ccnnc2)CC1 [compound 42] yielded a Ki of 9 nM. With CC1CCN(c2nc(C(F)(F)F)ccc2CNC(=O)C(C)c2ccc(NC(=O)c3ccccc3)nc2)CC1 (stereo not drawn) [compound 98] the Ki was 63 nM. CC1CCN(c2nc(C(F)(F)F)ccc2CNC(=O)Nc2cnc(N(C)C)c(C(F)(F)F)c2)CC1 [compound 104] showed a Ki of 9 nM. Compound CC1CCN(c2nc(C(F)(F)F)ccc2CNC(=O)Nc2ccc(N3CCC3)nc2)CC1 [compound 105] has a Ki of 27 nM. In the case of COCCOc1ccc(NC(=O)NCc2ccc(C(F)(F)F)nc2N2CCC(C)CC2)cn1 [compound 124], the Ki is reported as 4 nM. With CC1CCN(c2nc(C(F)(F)F)ccc2CNC(=O)Cc2ccccn2)CC1 [compound 13] the Ki was 7 nM. In the case of CC1CCN(c2nc(C(F)(F)F)ccc2CNC(=O)C(C)c2ccc(N)c(Br)n2)CC1 (stereo not drawn) [compound 84], the Ki is reported as 50 nM. Work on CC1CCN(c2nc(C(F)(F)F)ccc2CNC(=O)Nc2ccc(N3CC[C@H](O)C3)nc2)CC1 [compound 117] yielded a Ki of 9 nM. O=C(NCc1ccc(C(F)(F)F)nc1-c1cncc(Cl)c1)Nc1ccc(NCCO)nc1 [compound 131] was tested, and the Ki was 29 nM. CC1CCN(c2nc(C(F)(F)F)ccc2CNC(=O)C(C)c2ccc(N(C)CCO)nc2)CC1 (stereo not drawn) [compound 89] showed a Ki of 53 nM. COc1ccc(C(C)C(=O)NCc2ccc(C(F)(F)F)nc2N2CCC(C)CC2)cn1 (stereo not drawn) [compound 120] gave a Ki of 44 nM. COCCNc1ccc(NC(=O)NCc2ccc(C(F)(F)F)nc2N2CCC(C)CC2)cn1 [compound 88] was tested, and the Ki was 16 nM. For CCNc1nc(C(F)(F)F)ccc1CNC(=O)C(C)c1cnc(C(=O)Nc2ccc(F)cc2)nc1 (stereo not drawn) [compound 77], the Ki was 80 nM. CC1CCN(c2nc(C(F)(F)F)ccc2CNC(=O)Nc2ccc(CO)nc2)CC1 [compound 55] showed a Ki of 11 nM. In the case of CC1CCN(c2nc(C(F)(F)F)ccc2CNC(=O)Nc2cncc(CO)c2)CC1 [compound 126], the Ki is reported as 26 nM. CC1CCN(c2nc(C(F)(F)F)ccc2CNC(=O)Nc2ccc(C(O)CO)nc2)CC1 (stereo not drawn) [compound 129] was tested, and the Ki was 39 nM. With CC1CCN(c2nc(C(F)(F)F)ccc2CNC(=O)Nc2ccc(N3CCCC3)nc2)CC1 [compound 114] the Ki was 12 nM. CC1CCN(c2nc(C(F)(F)F)ccc2CNC(=O)C(C)c2cccnc2)CC1 (stereo not drawn) [compound 32] showed a Ki of 10 nM. With CC1CCN(c2nc(C(F)(F)F)ccc2CNC(=O)C(C)c2ccc(NCCO)nc2)CC1 (stereo not drawn) [compound 85] the Ki was 2 nM. Compound CC1CCN(c2nc(C(F)(F)F)ccc2CNC(=O)Nc2ccncc2CO)CC1 [compound 128] has a Ki of 69 nM. COCCNc1ccc(C(C)C(=O)NCc2ccc(C(F)(F)F)nc2N2CCC(C)CC2)cn1 (stereo not drawn) [compound 87] showed a Ki of 27 nM. CC1CCN(c2nc(C(F)(F)F)ccc2CNC(=O)Cc2cncnc2)CC1 [compound 47] showed a Ki of 38 nM. With CC1CCN(c2nc(C(F)(F)F)ccc2CNC(=O)Nc2ccc(N3CC[C@@H](O)C3)nc2)CC1 [compound 118] the Ki was 10 nM. COc1cc(NC(=O)NCc2ccc(C(F)(F)F)nc2N2CCC(C)CC2)cnc1N1CCC1 [compound 107] showed a Ki of 81 nM. In the case of COc1cc(C(C)C(=O)NCc2ccc(C(F)(F)F)nc2N2CCC(C)CC2)cnc1NS(C)(=O)=O (stereo not drawn) [compound 97], the Ki is reported as 2 nM. With O=C(NCc1ccc(C(F)(F)F)nc1-c1cccc(F)c1)Nc1ccc(NCCO)nc1 [compound 130] the Ki was 15 nM.

Same assay, conditions: inhibition at 1 μM compound, capsaicin (CAP)
For COCCN(C)c1ccc(NC(=O)NCc2ccc(C(F)(F)F)nc2N2CCC(C)CC2)cn1 [compound 91], the “TRPV1 human (f) CAP, inhibition (as a percentage) @ 1 μM” value was 12% @ 1 μM.

Same assay, conditions: inhibition at 5 μM compound, capsaicin (CAP)
With O=C(Cc1ccccn1)NCc1ccc(C(F)(F)F)nc1-c1ccc(F)c(Cl)c1 [compound 6] the “TRPV1 human (f) CAP, inhibition (as a percentage) @ 5 μM” value was 48% @ 5 μM.

Same assay, conditions: inhibition at 5 μM compound, capsaicin (CAP); read-out: TRPV1 human (f) CAP, inhibition (as a percentage) @ 5 μM
With COc1cccc(-c2nc(C(F)(F)F)ccc2CNC(=O)Cc2ccccn2)c1 [compound 8] the inhibition at 5 µM was 39%. With CCCCNc1nc(C(F)(F)F)ccc1CNC(=O)Cc1ccccn1 [compound 9] the inhibition at 5 µM was 23%. Cc1cccc(-c2nc(C(F)(F)F)ccc2CNC(=O)Cc2ccccn2)c1 [compound 7] was tested, and the inhibition at 5 µM was 18%. In the case of COCCOCc1nc(C(F)(F)F)ccc1CNC(=O)Cc1ccccn1 [compound 24], the inhibition at 5 µM is reported as 13%. Compound O=C(Cc1ccccn1)NCc1ccc(C(F)(F)F)nc1N1CCOCC1 [compound 22] has an inhibition at 5 µM of 32%. For CC1CCN(c2nc(C(F)(F)F)ccc2CNC(=O)Cc2ncccn2)CC1 [compound 41], the inhibition at 5 µM was 39%. Work on CC(C(=O)NCc1ccc(C(F)(F)F)nc1N1CCOCC1)c1ccc(NS(C)(=O)=O)nc1 (stereo not drawn) [compound 95] yielded an inhibition at 5 µM of 34%.

Same assay, conditions: printed in the Ki column instead of a value
With CC1CCN(c2nc(C(F)(F)F)ccc2CNC(=O)C(C)c2ccc(Cl)nc2)CC1 (stereo not drawn) [compound 49] the “TRPV1 human (f) CAP, agonist (AG)” value was “AG”. For CC1CCN(c2nc(C(F)(F)F)ccc2CNC(=O)Cc2ccncc2)CC1 [compound 38], the “TRPV1 human (f) CAP, agonist (AG)” value was “AG”. With CC1CCN(c2nc(C(F)(F)F)ccc2CNC(=O)C(C)c2ccc(C(N)=O)nc2)CC1 (stereo not drawn) [compound 74] the “TRPV1 human (f) CAP, agonist (AG)” value was “AG”.
